# Assay results from article PMC3920478, “Small molecule-mediated refolding and activation of myosin motor function” (eLife, 2014).
# Several values for one entry are separate records, joined by “and”; a condition that tells them apart may be missing. Equal entries are not always repeated. Entries after “also recorded” stand apart in the source; their conditions may differ.
# Tests used:
# β-cardiac myosin [1] = molecular target: T1, β-cardiac myosin (Sus scrofa, UniProt P79293); assay: Steady-state basal and actin-activated Mg2+-ATPase (NADH-coupled assay); assay type: biochemical, Porcine
# Experimental: (§1) Rabbit fast skeletal muscle heavy meromyosin (HMM) was prepared as described by [Margossian and Lowey (1982)]. Porcine β-cardiac myosin was prepared essentially as described by [Pant et al. (2009)] and [Jacques et al. (2008)] and further purified by gel filtration. S1 and HMM fragments were produced by proteolytic digestion of the full-length proteins with 0.05 mg/ml papain (10 min, 25°C) for S1 and with 0.1 mg/ml TLCK-treated α-chymotrypsin (15 min, 25°C) for HMM. Reactions were stopped with specific protease inhibitors for papain (10 µM E−64) and chymotrypsin (10 µM chymostatin, 1 mM benzamidine). Proteolytic fragments were further purified by actin-coprecipitation. Pellets were washed twice and myosin was extracted from the pellets using ATP containing buffer. Gel filtration was used to further increase purity of myosin S1 and HMM fragments. His-tagged motor domain constructs of Dd myosin-2, Dd myosin-1B, Dd myosin-1C, Dd myosin-1D, Dd myosin-1E, Dd myosin-5b fused to two Dd α-actinin repeats substituting the light-chain binding domains ([Anson et al., 1996]) were expressed in Dd AX3-ORF + cells and purified by Ni^2+-chelate affinity chromatography ([Manstein and Hunt, 1995]).
# Basal and actin-activated Mg^2+-ATPase activities were measured using the NADH-coupled assay described previously ([Furch et al., 1998]) adapted for higher throughput screens for a temperature controlled plate reader (Multiscan FC, Thermo Scientific, Waltham, MA) at 25°C. […] Control measurements were carried out in the absence of drug, as well as in the presence of according concentrations of the non-binding (−)-enantiomer EMD 57439 to account for possible absorption effects. […] Data points are mean values from 3 to 5 independent experiments. Error bars indicate standard deviations.
# Target sequence in this assay (P79293 1-810 limits assumed): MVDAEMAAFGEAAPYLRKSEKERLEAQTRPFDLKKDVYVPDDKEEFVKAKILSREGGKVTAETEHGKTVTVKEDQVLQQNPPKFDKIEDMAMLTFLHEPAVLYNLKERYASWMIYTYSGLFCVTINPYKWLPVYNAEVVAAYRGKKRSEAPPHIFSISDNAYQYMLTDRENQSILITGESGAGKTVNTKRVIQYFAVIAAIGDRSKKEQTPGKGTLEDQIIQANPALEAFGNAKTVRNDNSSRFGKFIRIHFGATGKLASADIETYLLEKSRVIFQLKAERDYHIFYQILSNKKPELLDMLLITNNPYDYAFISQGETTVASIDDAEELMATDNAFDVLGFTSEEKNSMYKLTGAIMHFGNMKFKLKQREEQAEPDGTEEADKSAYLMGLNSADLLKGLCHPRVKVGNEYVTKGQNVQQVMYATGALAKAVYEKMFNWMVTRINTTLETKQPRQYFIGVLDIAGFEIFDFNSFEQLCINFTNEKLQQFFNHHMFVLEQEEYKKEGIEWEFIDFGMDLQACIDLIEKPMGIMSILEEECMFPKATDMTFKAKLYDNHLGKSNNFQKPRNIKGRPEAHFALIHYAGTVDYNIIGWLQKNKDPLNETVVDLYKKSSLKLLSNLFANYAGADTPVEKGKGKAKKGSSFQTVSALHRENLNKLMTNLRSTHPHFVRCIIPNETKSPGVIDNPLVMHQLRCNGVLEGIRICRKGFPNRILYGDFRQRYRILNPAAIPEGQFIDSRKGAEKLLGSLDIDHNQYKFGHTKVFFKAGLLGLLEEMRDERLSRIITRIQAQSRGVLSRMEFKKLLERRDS
# [2] = test system: Dd myosin-1B, -1C, -1D, -1E motor domains; assay: as above; assay type: biochemical, Dictyostelium discoideum
# Experimental: as §1, with “His-tagged motor domain constructs of Dd myosin-2, Dd myosin-1B, Dd myosin-1C, Dd myosin-1D, Dd myosin-1E, Dd myosin-5b fused to two Dd α-actinin repeats substituting the light-chain binding domains ([Anson et al., 1996]) were expressed in Dd AX3-ORF + cells and purified by Ni^2+-chelate affinity chromatography ([Manstein and Hunt, 1995]).” left out
# Basal and actin-activated Mg^2+-ATPase activities were measured using the NADH-coupled assay described previously ([Furch et al., 1998]) adapted for higher throughput screens for a temperature controlled plate reader (Multiscan FC, Thermo Scientific, Waltham, MA) at 25°C. […]
# [3] = molecular target: T2, complex formed by the β-cardiac myosin motor domain with F-actin (Sus scrofa, UniProt P79293); assay: Melting curve by differential static light scattering; conditions: 100 µM EMD 57033
# T2 construct: Melting curves of the complex formed by the β-cardiac myosin motor domain with F-actin; from tissue; host or cells: porcine cardiac muscle (myosin)
# T2 sequence (P79293 1-843 limits assumed, one chain of several): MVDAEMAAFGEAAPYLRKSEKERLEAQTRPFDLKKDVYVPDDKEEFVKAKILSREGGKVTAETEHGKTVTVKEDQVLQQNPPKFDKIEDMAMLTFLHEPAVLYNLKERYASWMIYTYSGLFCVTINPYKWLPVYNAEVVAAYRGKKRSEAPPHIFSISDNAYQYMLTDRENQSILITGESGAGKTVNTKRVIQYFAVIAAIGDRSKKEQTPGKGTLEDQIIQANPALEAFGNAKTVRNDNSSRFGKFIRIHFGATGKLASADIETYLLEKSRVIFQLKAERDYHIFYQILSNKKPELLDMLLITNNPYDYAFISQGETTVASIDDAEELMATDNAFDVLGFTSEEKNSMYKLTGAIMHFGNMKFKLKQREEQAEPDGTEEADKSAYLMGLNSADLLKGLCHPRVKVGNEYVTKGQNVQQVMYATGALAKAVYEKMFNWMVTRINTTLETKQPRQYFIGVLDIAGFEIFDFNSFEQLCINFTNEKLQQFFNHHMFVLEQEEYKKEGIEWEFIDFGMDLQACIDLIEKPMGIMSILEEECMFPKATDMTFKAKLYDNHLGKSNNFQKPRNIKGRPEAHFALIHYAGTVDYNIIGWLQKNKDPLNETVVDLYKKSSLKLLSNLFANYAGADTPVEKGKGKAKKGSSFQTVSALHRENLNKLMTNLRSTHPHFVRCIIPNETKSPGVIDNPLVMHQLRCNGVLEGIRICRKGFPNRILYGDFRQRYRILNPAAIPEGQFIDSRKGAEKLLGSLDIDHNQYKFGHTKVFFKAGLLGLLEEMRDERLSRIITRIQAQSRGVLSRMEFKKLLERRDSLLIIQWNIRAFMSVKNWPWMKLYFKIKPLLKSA
# Experimental: Circular dichroism and differential static light scattering experiments were performed to determine Tm.
# Protein stability was assayed following protein aggregation associated with heat denaturation ([Senisterra et al., 2006]). Protein solutions were diluted to a concentration of 0.2 mg/ml in a buffer containing 5 mM KPi pH 7.5, 25 mM KCl and heated in steps of 0.6°C. Static light scattering was measured at each temperature step and the resulting transition curve was fitted by a Boltzmann function. The transition midpoint gives a measure for the aggregation temperature induced by protein denaturation.
# β-cardiac myosin [4] = molecular target: T1, β-cardiac myosin; assay: Steady-state basal and actin-activated Mg2+-ATPase (NADH-coupled assay); assay type: biochemical, Porcine; remark: listed apart in the source
# Target sequence in this assay (P79293 1-810 limits assumed): as the sequence (P79293 1-810 limits assumed) above
# β-cardiac myosin [5] = molecular target: T1, β-cardiac myosin; assay: In vitro motility assay (actin filament sliding); assay type: biochemical, Porcine; design: β-Cardiac myosin-2 (S1, full-length); from tissue; host or cells: porcine cardiac muscle
# Description: In addition, the fraction of moving filaments increased from <75% to >95%. […] In initial experiments, we determined the minimal concentration of α-actinin molecules that generate sufficient load to stall the movement of actin filaments for a given surface density of myosin heads. […] Next, we generated in vitro motility flow cells with actin filaments held at stall force. […] The time-dependence of the recovery of motile activity is best fit by a hyperbola. A plateau value of 0.4 μm s^−1 is reached after more than 2 hr (Figure 1G).
# Actin-sliding motility was performed at 20°C using an Olympus IX81 (Olympus, Hamburg, Germany) inverted fluorescence microscope as described previously ([Fujita-Becker et al., 2005]). Average sliding velocities were determined from the Gaussian distribution of automatically tracked actin filaments using DiaTrack 3.01 (Semasopht, Chavannes, Switzerland) and Origin 7.0 (OriginLab Corporation, Northampton, MA). Errors indicate standard deviations.
# Target sequence in this assay (P79293 whole entry, the tested form may be a part): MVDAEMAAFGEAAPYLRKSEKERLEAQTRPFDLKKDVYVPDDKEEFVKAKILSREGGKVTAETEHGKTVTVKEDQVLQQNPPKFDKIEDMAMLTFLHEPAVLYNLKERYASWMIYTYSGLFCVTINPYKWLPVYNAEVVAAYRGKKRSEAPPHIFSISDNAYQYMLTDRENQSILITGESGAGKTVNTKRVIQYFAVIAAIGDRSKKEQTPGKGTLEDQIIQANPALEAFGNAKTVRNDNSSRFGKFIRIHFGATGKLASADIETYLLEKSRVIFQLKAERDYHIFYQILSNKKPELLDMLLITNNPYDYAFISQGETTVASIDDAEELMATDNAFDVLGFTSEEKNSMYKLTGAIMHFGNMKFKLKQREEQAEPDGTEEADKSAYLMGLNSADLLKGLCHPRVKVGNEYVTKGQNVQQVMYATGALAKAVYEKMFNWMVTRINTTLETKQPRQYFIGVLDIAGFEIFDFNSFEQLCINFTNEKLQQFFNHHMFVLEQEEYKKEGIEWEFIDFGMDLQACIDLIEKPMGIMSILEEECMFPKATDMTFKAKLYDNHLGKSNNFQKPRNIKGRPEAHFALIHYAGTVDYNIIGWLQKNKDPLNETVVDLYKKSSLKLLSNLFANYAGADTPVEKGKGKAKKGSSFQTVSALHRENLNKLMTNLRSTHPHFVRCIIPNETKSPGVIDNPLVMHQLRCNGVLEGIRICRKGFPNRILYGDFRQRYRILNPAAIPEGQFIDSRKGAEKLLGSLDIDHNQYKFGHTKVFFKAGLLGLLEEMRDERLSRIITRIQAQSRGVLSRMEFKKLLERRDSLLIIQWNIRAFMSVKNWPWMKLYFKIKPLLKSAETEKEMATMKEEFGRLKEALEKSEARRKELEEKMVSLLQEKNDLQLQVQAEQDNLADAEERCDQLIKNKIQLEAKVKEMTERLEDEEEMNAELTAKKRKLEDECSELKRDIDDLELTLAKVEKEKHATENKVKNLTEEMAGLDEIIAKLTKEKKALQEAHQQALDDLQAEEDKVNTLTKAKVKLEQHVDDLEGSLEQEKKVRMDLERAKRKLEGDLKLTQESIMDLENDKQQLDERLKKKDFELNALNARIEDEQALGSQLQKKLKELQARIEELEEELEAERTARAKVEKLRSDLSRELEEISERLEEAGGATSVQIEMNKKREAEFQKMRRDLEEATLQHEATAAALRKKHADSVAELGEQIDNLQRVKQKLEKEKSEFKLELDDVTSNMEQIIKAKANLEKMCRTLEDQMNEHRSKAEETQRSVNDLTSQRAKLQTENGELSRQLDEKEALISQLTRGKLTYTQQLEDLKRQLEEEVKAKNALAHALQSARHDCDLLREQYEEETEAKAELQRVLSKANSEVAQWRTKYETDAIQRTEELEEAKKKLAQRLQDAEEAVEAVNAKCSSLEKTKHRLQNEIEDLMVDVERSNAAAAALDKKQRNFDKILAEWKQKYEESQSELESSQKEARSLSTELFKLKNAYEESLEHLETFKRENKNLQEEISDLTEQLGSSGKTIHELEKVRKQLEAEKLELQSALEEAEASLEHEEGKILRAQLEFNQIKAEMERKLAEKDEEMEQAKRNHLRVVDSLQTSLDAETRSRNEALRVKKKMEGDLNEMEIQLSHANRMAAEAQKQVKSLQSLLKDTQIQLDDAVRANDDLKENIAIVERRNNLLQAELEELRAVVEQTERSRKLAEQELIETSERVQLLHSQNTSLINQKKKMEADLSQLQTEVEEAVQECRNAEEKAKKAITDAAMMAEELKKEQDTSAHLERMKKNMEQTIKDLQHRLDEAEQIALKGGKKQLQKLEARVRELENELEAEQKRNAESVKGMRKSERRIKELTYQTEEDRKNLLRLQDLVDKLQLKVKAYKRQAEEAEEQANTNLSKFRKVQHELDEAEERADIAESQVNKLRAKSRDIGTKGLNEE
# phosphodiesterase III = test system: phosphodiesterase III; design: method as in Gambassi et al., 1993; conditions: ref Gambassi et al., 1993; cited from earlier work
# β-cardiac myosin [6] = molecular target: T1, β-cardiac myosin; assay: Heat stress protection, storage and refolding of myosin; assay type: biochemical, Porcine; conditions: for Competence to bind nucleotide (mantATP amplitude) preserved: 25 μM EMD 57033
# Experimental: The fraction of myosin that is able to bind mantATP drops to below 32% when the temperature is raised to 49°C for more than 5 min. Incubation for 10 min at 51°C removes the myosin completely and irreversibly from the soluble fraction. […] Moreover, based on the amplitude of the rise in mantATP fluorescence, the competence of β-cardiac myosin to bind nucleotide is preserved to more than 91% after 5-min incubation at 49°C and to approximately 82% after 10-min incubation at 49°C (Figure 4B). […] This view is supported by experiments that monitor the recovery of basal activity over a 2 hr period (Figure 4C). To obtain more detailed information about the kinetics of the EMD 57033-mediated refolding reaction, we performed three sets of experiments recording the time and concentration dependence of EMD 57033-mediated increases in the fraction of myosin molecules that are able to undergo nucleotide induced conformational changes, hydrolyze ATP, and produce movement in the in vitro motility assay.
# Changes in intrinsic protein fluorescence are tightly linked to ATP binding and ATP-induced conformational changes in the myosin motor domain ([Batra and Manstein, 1999]). […] The dependence of the kobs values on the incubation time was best fit by a hyperbola (Figure 4E). […] The slope defines a value of 0.02 × 10^-3 μM^−1 s^−1 for the second order rate constant for the EMD 57033-mediated refolding reaction (Figure 4H).
# Target sequence in this assay (P79293 1-778 limits assumed): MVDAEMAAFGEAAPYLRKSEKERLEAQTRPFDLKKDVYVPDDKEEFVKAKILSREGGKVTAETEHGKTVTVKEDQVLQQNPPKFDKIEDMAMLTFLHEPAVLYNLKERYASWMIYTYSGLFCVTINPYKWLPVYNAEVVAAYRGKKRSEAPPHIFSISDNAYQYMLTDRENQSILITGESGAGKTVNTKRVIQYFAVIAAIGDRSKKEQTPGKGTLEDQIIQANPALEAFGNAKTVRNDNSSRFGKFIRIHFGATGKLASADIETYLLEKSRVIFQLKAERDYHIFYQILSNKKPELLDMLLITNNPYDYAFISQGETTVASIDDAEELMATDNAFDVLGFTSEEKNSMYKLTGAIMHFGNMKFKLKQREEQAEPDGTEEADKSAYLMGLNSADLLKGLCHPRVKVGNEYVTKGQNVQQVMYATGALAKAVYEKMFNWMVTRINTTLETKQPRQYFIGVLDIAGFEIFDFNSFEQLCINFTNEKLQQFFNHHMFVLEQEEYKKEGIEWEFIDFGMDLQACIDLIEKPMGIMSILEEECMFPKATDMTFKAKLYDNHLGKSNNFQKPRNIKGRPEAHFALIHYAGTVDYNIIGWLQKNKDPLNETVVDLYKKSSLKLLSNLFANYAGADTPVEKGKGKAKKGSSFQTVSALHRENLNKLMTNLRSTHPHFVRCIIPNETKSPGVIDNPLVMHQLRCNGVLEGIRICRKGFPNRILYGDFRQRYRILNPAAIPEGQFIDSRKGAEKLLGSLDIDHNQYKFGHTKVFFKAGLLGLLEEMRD
smiles,measurement,setting,value
COc1ccc(C(=O)N2CCCc3cc(C4=NNC(=O)SC4C)ccc32)cc1OC (stereo not shown) [EMD 57033],Normalized maximal ATPase activation (basal),β-cardiac myosin [1],1.5
same,"Effect on KM,ATP (Lineweaver–Burk plot)",β-cardiac myosin [1]; 25 µM EMD 57033,remains unaffected
same,kcat increase (Lineweaver–Burk plot),β-cardiac myosin [1]; 25 µM EMD 57033,1.5 fold
same,"kcat ∼Change (−fold), increase",β-cardiac myosin [1]; 25 µM EMD 57033 vs control,1.6 fold
same,kcat/KM(Actin) (initial slope) ∼Change (−fold),β-cardiac myosin [1]; 25 µM EMD 57033 vs control,~15.8 fold
same,Normalized maximal ATPase activation (with 30 µM actin),β-cardiac myosin [1]; 30 µM actin,2.5
same,kcat (actin-activated ATPase),β-cardiac myosin [1]; in presence of 25 µM EMD 57033,0.19 ± 0.02 s⁻¹
same,"kcat/KM(Actin), calculated ratio of both values",β-cardiac myosin [1]; in presence of 25 µM EMD 57033,0.0528 µM^v1 s^−1
same,Basal ATP turnover relative to that expected for 100% active protein,β-cardiac myosin [1]; saturating EMD 57033,1.5 fold
same,AC50,"β-cardiac myosin [1]; β-Cardiac myosin-2 (S1, full-length), read-out: AC50 ATPase (half-maximal activation)",7 µM
same,ATPase activity in excess of the value expected for a 100% active population of myosin heads,β-cardiac myosin [1]; β-cardiac myosin and Dd myosin-2 preparations together,30–50%
same,Normalized maximal ATPase activation (basal),[2],no effect
same,Normalized maximal ATPase activation (with 30 µM actin),[2]; 30 µM actin,no effect
same,Tm (mid-point of transition),[3],66.4 ± 3 °C
same,"Ea ∼Change (−fold), reduction",β-cardiac myosin [4]; EMD 57033 vs control,1.5 fold
same,Ea (Arrhenius activation energy of ATP turnover),"β-cardiac myosin [4]; in presence of EMD 57033, 25–45°C",7.41 kcal/mol and 7.41 ± 0.72 kcal/mol
same,Increase of actin filament sliding velocity,β-cardiac myosin [5],1.8 fold
same,Fraction of moving filaments,β-cardiac myosin [5]; in presence of EMD 57033,> 95%
same,Phosphodiesterase III inhibition,phosphodiesterase III,only minimal phosphodiesterase III inhibitory effects
same,Shelf life of protein-functionalized surfaces,β-cardiac myosin [6],from a couple of hours to several months
same,Shelf life of myosin at 4°C,β-cardiac myosin [6]; 25 µM EMD 57033,extends the shelf life
same,Competence to bind nucleotide (mantATP amplitude) preserved,β-cardiac myosin [6]; 5-min incubation at 49°C,more than 91%
same,Competence to bind nucleotide (mantATP amplitude) preserved,β-cardiac myosin [6]; 10-min incubation at 49°C,approximately 82%
same,Recovery of ability to bind mantATP after heat inactivation,"β-cardiac myosin [6]; 10 min at 49°C, then 25 µM EMD 57033",gradually recovered
same,First order dissociation rate constant for EMD 57033 (y-intercept),β-cardiac myosin [6]; heat-treated β-cardiac myosin,0.00023 s⁻¹
same,Second order rate constant for the EMD 57033-mediated refolding reaction (krescue),"β-cardiac myosin [6]; heat-treated β-cardiac myosin, 10–100 μM EMD 57033",20 M⁻¹ s⁻¹
same,Recovery of enzymatic activity of fully denatured myosin aggregates,β-cardiac myosin [6]; incubation for 6 hr on ice or at 20°C,no detectable recovery of enzymatic activity
same,Precipitation / solubility of myosin under heat stress,"β-cardiac myosin [6]; preincubation with 25 μM EMD 57033, 10-min incubation",remained in the supernatant over the entire temperature range tested; also recorded: prevents precipitation
